Data set [1] relates to Enterococcus faecalis. Nature of the data set: Antimicrobial activity against Enterococcus faecalis ATCC 29212 assessed as reduction in microbial growth after 24 hrs by broth microdilution method. It counts as functional. A general note: In broth dilution the organism is exposed to a series of concentrations in liquid medium.
Data set [2] relates to Candida albicans. Nature of the data set: Antifungal activity against Candida albicans ATCC 10231 assessed as reduction in fungal growth after 24 hrs by broth microdilution method. In kind it is functional.
For data set [3], the system named is Pseudomonas aeruginosa. Nature of the data set: Antimicrobial activity against Pseudomonas aeruginosa ATCC 27853 assessed as reduction in microbial growth after 24 hrs by broth microdilution method. In kind it is functional.
Data set [4] concerns Bacillus cereus. Nature of the data set: Antimicrobial activity against Bacillus cereus ATCC 11778 assessed as reduction in microbial growth after 24 hrs by broth microdilution method. It counts as functional.
Data set [5] relates to Erythrocyte. Nature of the data set: Hemolytic activity in human RBC assessed as hemolysis at 32 uM incubated for 30 mins. It counts as toxicity, cell-based. Particulars: 0.5 h.
In data set [6] the test system is Listeria monocytogenes. In words: Antimicrobial activity against Listeria monocytogenes ATCC 15313 assessed as reduction in microbial growth after 24 hrs by broth microdilution method. It counts as functional.
Data set [7] has as its system Erythrocyte. Nature of the data set: Hemolytic activity in human RBC assessed as hemolysis at 2 to 128 uM incubated for 30 mins. In kind it is toxicity, cell-based. Particulars: 0.5 h, dose 2-128 µM.
Data set [8] relates to Salmonella enterica. Nature of the data set: Antimicrobial activity against Salmonella enterica ATCC 13076 assessed as reduction in microbial growth after 24 hrs by broth microdilution method. In kind it is functional.
In data set [9] the test system is Staphylococcus aureus. In words: Antimicrobial activity against Staphylococcus aureus ATCC 25923 assessed as reduction in microbial growth after 24 hrs by broth microdilution method. It counts as functional.
The subject of data set [10] is Escherichia coli. Nature of the data set: Antimicrobial activity against Escherichia coli ATCC 25922 assessed as reduction in microbial growth after 24 hrs by broth microdilution method. In kind it is functional.
In data set [11] the test system is NCI-H441. In words: Anticancer activity against human NCI-H441 cells assessed as inhibition of cell growth incubated for 24 hrs by CCK-8 assay. In kind it is functional, cell-based.
The test system of data set [12] is A-427. Nature of the data set: Anticancer activity against human A-427 cells assessed as inhibition of cell growth incubated for 24 hrs by CCK-8 assay. It counts as functional, cell-based. The settings on record: A-427, 24 h.

Active and inactive are the calls of the source. The rule behind the calls is not given here.

One may read the MIC as the lowest concentration found to suppress growth. On to H-LNLKALLAVAKKIL-NH2, for which the MIC in [1] stood at 4 µM; in data set [2], 8 µM; in data set [3], 64 µM; in data set [4], 4 µM; in [6] it was 8 µM; in data set [8], 32 µM. The MIC in data set [9] is 32 µM; in [10], 8 µM. Also, the Activity result in [5] was “Toxic”; in data set [7], “Non-Toxic”.
What is called IC50 is the concentration that inhibits the measured activity by half. Take H-LNLKKLLAVAKKIL-NH2: the MIC in [1] was 8 µM; in data set [2], 32 µM; in data set [3] it was 128 µM; in [4], 16 µM; in [6] it was 8 µM; in data set [8] it was 64 µM. The MIC in [9] worked out at 64 µM; in data set [10], 8 µM. Besides, the result in [11] was Active. In addition, the Activity entry in data set [7] is on record as “Non-Toxic”. Also, in data set [12], the IC50 was 5.1 µM.
Take H-LNLKKLLKVAKKIL-NH2: the MIC in data set [1] worked out at 4 µM; in data set [2] it was 16 µM; in data set [3] it was 64 µM; in data set [4], 16 µM; in [6], 4 µM; in data set [8], 32 µM. In addition, the MIC was 32 µM in data set [9] and 8 µM in data set [10]. The Activity entry in data set [7] is reported as “Non-Toxic”.
For the molecule `NC[C@H]1O[C@H](O[C@H]2[C@H](O)[C@@H](O[C@H]3O[C@H](CO)[C@@H](O)[C@H](N)[C@H]3O)[C@H](N)C[C@@H]2N)[C@H](O)[C@@H](O)[C@@H]1O` [KANAMYCIN], the MIC in data set [1] was over 128 µM; in data set [2], over 128 µM; in data set [3] it was over 128 µM; in [4], 64 µM; in data set [6], 32 µM; in data set [8], 16 µM. The MIC in [9] and in data set [10] was 32 µM in each case.
Regarding `O=C(N[C@H](CO)[C@H](O)c1ccc([N+](=O)[O-])cc1)C(Cl)Cl` [CHLORAMPHENICOL], the minimum inhibitory concentration (MIC) in data set [1] was 64 µM; in data set [2], over 128 µM; in [3], over 128 µM; in data set [4], 8 µM; in data set [6] it was 64 µM; in data set [8], 8 µM. The MIC in data set [9] worked out at 32 µM; in [10] it was 8 µM.
In the case of H-LNLKALLKVAKKIL-NH2, the MIC in data set [1] was 4 µM; in [2], 16 µM; in [3] it was 64 µM; in data set [4], 8 µM; in data set [6], 4 µM; in [8], 64 µM. Besides, the MIC was 32 µM in data set [9] and 8 µM in [10]. Moreover, the figures for the Activity entry in [5] and in data set [7] were “Toxic” and “Non-Toxic”, respectively. Also, the result in [11] was Active. Also, the IC50 in data set [12] was 7 µM.
